ChEMBL document CHEMBL4368940, “Development of a novel NURR1/NOT agonist from hit to lead and candidate for the potential treatment of Parkinson's disease” (Bioorg Med Chem Lett, 2019)
Each block holds one molecule with its values, some of them ahead of it.

Experiments:
hERG = hERG (Homo sapiens, UniProt Q12809); assay: Inhibition of human ERG at 10 uM
[1] = target: Nuclear receptor subfamily 4 group A member 2 (Homo sapiens, UniProt P43354); assay: Agonist activity at full-length Gal4-fused NOT (unknown origin) expressed in CHO cells by luciferase reporter gene assay; format: cell-based
Sequence of Nuclear receptor subfamily 4 group A member 2 (Homo sapiens, UniProt P43354) (P43354 whole entry, the tested form may be a part): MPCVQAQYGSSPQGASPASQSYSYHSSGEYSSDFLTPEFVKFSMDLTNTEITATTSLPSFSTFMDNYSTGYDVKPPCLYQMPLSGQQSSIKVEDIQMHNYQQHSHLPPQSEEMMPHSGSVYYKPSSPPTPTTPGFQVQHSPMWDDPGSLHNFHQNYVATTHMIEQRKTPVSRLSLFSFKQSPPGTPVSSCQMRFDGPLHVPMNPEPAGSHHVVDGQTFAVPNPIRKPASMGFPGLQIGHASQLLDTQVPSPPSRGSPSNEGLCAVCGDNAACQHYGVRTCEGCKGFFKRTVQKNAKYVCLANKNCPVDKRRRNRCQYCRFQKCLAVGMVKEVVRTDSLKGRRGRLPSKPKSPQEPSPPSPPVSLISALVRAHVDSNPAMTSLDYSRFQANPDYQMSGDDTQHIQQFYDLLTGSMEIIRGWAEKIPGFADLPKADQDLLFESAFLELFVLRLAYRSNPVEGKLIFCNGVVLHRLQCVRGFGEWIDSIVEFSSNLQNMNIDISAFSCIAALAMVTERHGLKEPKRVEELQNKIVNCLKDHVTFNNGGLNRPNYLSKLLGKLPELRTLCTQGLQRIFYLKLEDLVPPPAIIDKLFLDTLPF

[2] = Drug level in human hepatocytes treated with (3-(2-(4-chlorophenyl)imidazo[1,2-a]pyridin-6-yl)phenyl)methanol; format: ADME, cell-based, Hepatocyte
[3] = target: Nuclear receptor subfamily 4 group A member 2 (Mus musculus) (UniProt Q06219); assay: (§1) Agonist activity at Nurr1 in mouse N2A cells harboring NBRE by luciferase reporter gene assay; format: cell-based
Sequence of Nuclear receptor subfamily 4 group A member 2 (Mus musculus) (Q06219 whole entry): as the sequence (P43354 whole entry, the tested form may be a part) above, with T131S, G134S, E354D counted along it

[4] = target: Nuclear receptor subfamily 4 group A member 2 (Mus musculus, UniProt Q06219); assay: as §1; format: cell-based
Sequence of Nuclear receptor subfamily 4 group A member 2 (Mus musculus, UniProt Q06219) (Q06219 whole entry): as the sequence (P43354 whole entry, the tested form may be a part) above, with T131S, G134S, E354D counted along it

[5] = Dissociation constant, pKa of the compound; format: physicochemical
[6] = Apparent permeability in human Caco2 cells; format: ADME, cell-based; settings: caco-2
Cytochrome P450 2D6 = Cytochrome P450 2D6 (Homo sapiens, UniProt P10635); assay: Inhibition of CYP2D6 (unknown origin); format: ADME
Sequence of Cytochrome P450 2D6 (P10635 whole entry): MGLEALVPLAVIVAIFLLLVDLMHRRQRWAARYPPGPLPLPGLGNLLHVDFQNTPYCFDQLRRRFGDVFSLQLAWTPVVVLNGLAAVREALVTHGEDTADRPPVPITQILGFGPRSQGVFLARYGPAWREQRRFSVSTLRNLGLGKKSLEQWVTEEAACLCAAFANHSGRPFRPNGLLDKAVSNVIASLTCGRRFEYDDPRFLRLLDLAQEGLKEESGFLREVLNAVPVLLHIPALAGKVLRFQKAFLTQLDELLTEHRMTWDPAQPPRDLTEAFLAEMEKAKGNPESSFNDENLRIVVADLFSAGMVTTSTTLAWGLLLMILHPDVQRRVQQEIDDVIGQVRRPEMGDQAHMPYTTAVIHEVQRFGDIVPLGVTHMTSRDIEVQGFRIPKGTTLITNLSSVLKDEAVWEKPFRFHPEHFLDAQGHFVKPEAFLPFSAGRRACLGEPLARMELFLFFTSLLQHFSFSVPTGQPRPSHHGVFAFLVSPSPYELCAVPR

CYP450 = CYP450 (Homo sapiens, UniProt P04798+P05177+P05181+P08684+P10632+P10635+P11509+P11712+P13584+P20813+P20815+P20853+P24462+P24903+P33260+P33261+P51589+P78329+P98187+Q02928+Q08477+Q16678+Q16696+Q5TCH4+Q6VVX0+Q7Z449+Q8TAV3+Q96SQ9+Q9HB55); assay: Induction of CYP450 (unknown origin); format: ADME, protein assay
Cytochrome P450 3A4 = Cytochrome P450 3A4 (Homo sapiens, UniProt P08684); assay: Inhibition of CYP3A4 (unknown origin); format: ADME
Sequence of Cytochrome P450 3A4 (P08684 whole entry): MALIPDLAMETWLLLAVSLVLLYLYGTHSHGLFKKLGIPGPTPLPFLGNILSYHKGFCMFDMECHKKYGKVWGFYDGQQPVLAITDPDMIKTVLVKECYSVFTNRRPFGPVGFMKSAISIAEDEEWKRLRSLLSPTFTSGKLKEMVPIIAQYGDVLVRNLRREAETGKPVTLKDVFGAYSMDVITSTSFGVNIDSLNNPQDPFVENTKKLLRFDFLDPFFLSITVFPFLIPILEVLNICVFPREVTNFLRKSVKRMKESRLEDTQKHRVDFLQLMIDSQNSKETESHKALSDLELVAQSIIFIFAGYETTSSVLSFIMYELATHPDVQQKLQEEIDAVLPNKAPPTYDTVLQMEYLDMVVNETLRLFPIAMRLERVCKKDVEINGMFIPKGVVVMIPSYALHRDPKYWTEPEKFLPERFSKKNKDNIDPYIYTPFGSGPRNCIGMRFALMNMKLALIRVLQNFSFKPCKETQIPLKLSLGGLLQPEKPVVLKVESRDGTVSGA

[7] = Drug metabolism in human liver microsomes; format: ADME, Microsome; settings: read-out: Drug metabolism
[8] = Lipophilicity, log D of the compound; format: physicochemical; settings: octanol/water
[9] = Clearance in human hepatocytes assessed per million cells; format: ADME, cell-based, Hepatocyte
[10] = target: Nuclear receptor subfamily 4 group A member 2 (Rattus norvegicus) (UniProt Q07917); assay: Agonist activity at Nurr1 in rat mesencephalic primary neurons assessed as increase in tyrosine hydroxylase expression at 3 uM
Sequence of Nuclear receptor subfamily 4 group A member 2 (Rattus norvegicus) (Q07917 whole entry): as the sequence (P43354 whole entry, the tested form may be a part) above, with T131S, P182R, E354D counted along it

Cytochrome P450 2C9 = Cytochrome P450 2C9 (Homo sapiens, UniProt P11712); assay: Inhibition of CYP2C9 (unknown origin); format: ADME
Sequence of Cytochrome P450 2C9 (P11712 whole entry): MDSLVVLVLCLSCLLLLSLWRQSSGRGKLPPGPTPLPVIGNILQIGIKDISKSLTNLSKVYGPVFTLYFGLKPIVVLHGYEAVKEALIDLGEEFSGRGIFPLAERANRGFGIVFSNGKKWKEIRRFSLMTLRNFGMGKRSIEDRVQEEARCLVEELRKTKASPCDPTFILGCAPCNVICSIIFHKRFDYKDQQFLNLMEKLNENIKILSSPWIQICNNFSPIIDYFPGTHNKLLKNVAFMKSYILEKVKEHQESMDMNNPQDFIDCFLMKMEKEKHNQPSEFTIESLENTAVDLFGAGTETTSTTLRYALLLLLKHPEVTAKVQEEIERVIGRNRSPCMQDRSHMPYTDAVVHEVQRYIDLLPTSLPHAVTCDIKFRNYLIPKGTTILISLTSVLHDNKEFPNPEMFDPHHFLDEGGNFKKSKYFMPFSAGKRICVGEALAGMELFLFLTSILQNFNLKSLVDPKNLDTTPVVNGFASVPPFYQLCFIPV

[11] = Drug metabolism in mouse liver microsomes assessed as amide hydrolysis by measuring 6-(pyridin-2-yl)imidazo[1,2-a]pyridine-2-carboxylic acid formation; format: ADME, Microsome
[12] = Drug metabolism in mouse liver microsomes; format: ADME, Microsome; settings: read-out: Drug metabolism
[13] = Stability in human plasma; format: ADME, cell-free
[14] = Drug metabolism in mouse liver microsomes assessed as amide hydrolysis by measuring aniline formation; format: ADME, Microsome
[15] = Solubility of the compound by HPLC analysis; format: physicochemical
[16] = target: Voltage-gated inwardly rectifying potassium channel KCNH2 (Homo sapiens, UniProt Q12809); assay: Activation of human ERG
Sequence of Voltage-gated inwardly rectifying potassium channel KCNH2 (Q12809 whole entry): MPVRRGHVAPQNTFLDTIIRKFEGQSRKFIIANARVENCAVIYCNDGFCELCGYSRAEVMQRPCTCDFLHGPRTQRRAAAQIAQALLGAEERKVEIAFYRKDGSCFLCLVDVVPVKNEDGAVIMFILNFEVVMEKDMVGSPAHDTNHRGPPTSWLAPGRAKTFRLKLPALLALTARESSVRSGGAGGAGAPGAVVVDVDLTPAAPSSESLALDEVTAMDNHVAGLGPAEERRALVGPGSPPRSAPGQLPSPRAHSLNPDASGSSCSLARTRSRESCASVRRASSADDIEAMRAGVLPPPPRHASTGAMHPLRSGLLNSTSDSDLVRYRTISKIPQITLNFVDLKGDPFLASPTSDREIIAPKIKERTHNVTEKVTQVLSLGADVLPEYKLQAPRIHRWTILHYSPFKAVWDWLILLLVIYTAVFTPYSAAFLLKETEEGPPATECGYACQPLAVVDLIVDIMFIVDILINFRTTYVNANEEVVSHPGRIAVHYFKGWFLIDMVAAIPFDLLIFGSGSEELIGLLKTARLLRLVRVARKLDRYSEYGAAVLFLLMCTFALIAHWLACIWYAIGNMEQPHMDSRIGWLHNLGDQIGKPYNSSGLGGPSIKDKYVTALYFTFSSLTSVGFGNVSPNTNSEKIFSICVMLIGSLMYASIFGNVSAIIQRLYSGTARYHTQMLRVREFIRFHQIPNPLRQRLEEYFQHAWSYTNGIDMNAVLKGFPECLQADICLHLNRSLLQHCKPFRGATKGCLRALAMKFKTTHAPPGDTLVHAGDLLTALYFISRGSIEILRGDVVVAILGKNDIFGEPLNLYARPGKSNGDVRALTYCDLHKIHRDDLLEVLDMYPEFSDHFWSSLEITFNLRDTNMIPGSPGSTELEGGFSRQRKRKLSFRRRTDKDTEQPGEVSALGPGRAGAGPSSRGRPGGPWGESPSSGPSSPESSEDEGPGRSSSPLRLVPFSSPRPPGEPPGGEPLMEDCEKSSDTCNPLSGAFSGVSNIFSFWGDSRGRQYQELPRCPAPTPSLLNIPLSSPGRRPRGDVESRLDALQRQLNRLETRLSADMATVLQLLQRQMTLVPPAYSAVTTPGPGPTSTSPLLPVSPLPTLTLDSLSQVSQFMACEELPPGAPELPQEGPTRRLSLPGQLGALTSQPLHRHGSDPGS

[17] = Genotoxicity in Salmonella typhimurium by Ames test; format: toxicity; settings: salmonella enterica subsp. enterica serovar typhimurium
[18] = Stability in mouse plasma; format: ADME, cell-free

Sequence of hERG (Q12809 whole entry, the tested form may be a part): as the sequence (Q12809 whole entry) above

SMILES: CC(C)(O)c1c(F)ccc(-c2ccc3nc(-c4ccc(Cl)cc4)cn3c2)c1F
inhibition at 10 µM (hERG): 70%
EC50 ([1]; read-out: EC50): > 1000 nM

SMILES: CCCCC(O)c1cccc(-c2ccc3nc(-c4ccc(Cl)cc4)cn3c2)c1 (stereo unspecified)
EC50 ([1]; read-out: EC50): > 3000 nM

SMILES: CCN(CC)C(=O)c1cccc(-c2ccc3nc(-c4ccc(Cl)cc4)cn3c2)c1
EC50 ([1]; read-out: EC50): > 3000 nM

SMILES: OCc1cccc(-c2ccc3cc(-c4ccc(Cl)cc4)cn3c2)c1
EC50 ([1]; cho): Not Active

SMILES: O=C(Nc1cccc(F)n1)c1cn2cc(-c3ccccn3)ccc2n1
Emax [3]: 86%
EC50 [4]: 0.6 nM
Emax [1]: 138%
EC50 ([1]; read-out: EC50): 25 nM

SMILES: Cc1c(CO)cccc1-c1ccc2nc(-c3ccc(Cl)cc3)cn2c1
EC50 ([1]; read-out: EC50): > 1000 nM

SMILES: CCCCCC(O)c1cccc(-c2ccc3nc(-c4ccc(Cl)cc4)cn3c2)c1 (stereo unspecified)
EC50 ([1]; read-out: EC50): > 3000 nM

SMILES: Clc1ccc(-c2cn3cc(-c4cccc(CN5CCCC5)c4)ccc3n2)cc1
EC50 ([1]; read-out: EC50): > 3000 nM

SMILES: CCC(C)C(O)c1cccc(-c2ccc3nc(-c4ccc(Cl)cc4)cn3c2)c1 (stereo unspecified)
EC50 ([1]; read-out: EC50): > 3000 nM

SMILES: O=C(Nc1ccccc1)c1cn2cc(-c3ccccn3)ccc2n1
pKa [5]: 3.6
Emax [3]: 204%
EC50 [4]: 1 nM
permeability [6]: Permeable
IC50 (Cytochrome P450 2D6): > 10000 nM
Emax (CYP450): < 20%
IC50 (Cytochrome P450 3A4): > 10000 nM
metabolised [7]: 20%
logD [8]: 3.65
CLH [9]: 0.128 mL/h
Activity [10]: 174 to 216%
IC50 (Cytochrome P450 2C9): 8600 nM
Drug metabolism [11]: Metabolite_Detected
metabolised [12]: 21%
Stability [13]: Stable
Drug metabolism [14]: Metabolite_Detected
Emax [1]: 203%
EC50 ([1]; read-out: EC50): 140 nM
solubility [15]: < 1 µM
EC50 [16]: > 10000 nM
Activity [17]: Non-Toxic
Stability [18]: Unstable

SMILES: O=C(Nc1cc(F)ccc1F)c1cn2cc(-c3ccccn3)ccc2n1
Emax [3]: 68%
EC50 [4]: 1 nM
EC50 ([1]; read-out: EC50): > 1000 nM

SMILES: O=C(Nc1ccccc1F)c1cn2cc(-c3ccccn3)ccc2n1
Emax [3]: 104%
EC50 [4]: 1 nM
EC50 ([1]; read-out: EC50): > 1000 nM

SMILES: O=C(Nc1cc[nH]n1)c1cn2cc(-c3ccccn3)ccc2n1
Emax [3]: 61%
EC50 ([1]; read-out: EC50): > 1000 nM

SMILES: N#Cc1cccc(-c2ccc3nc(-c4ccc(Cl)cc4)cn3c2)c1
EC50 ([1]; read-out: EC50): > 3000 nM

SMILES: Cc1cccc(-c2ccc3nc(-c4ccc(Cl)cc4)cn3c2)c1
EC50 ([1]; read-out: EC50): > 3000 nM

SMILES: O=C(Nc1cccc(F)c1)c1cn2cc(-c3ccccn3)ccc2n1
Emax [3]: 103%
EC50 [4]: 1 nM
EC50 ([1]; read-out: EC50): > 1000 nM

SMILES: NC(=O)c1cccc(-c2ccc3nc(-c4ccc(Cl)cc4)cn3c2)c1
Emax [1]: 210%

SMILES: CC(O)c1cccc(-c2ccc3nc(-c4ccc(Cl)cc4)cn3c2)c1 (single isomer, unassigned; (+))
CLH [9]: 0.45 mL/h
EC50 ([1]; read-out: EC50): 75 nM

The next lines start with results.

EC50 ([1]; read-out: EC50): > 1000 nM
SMILES: CC(O)(CO)c1cccc(-c2ccc3nc(-c4ccc(Cl)cc4)cn3c2)c1 (stereo unspecified)

EC50 ([1]; read-out: EC50): > 3000 nM
SMILES: Clc1ccc(-c2cn3cc(-c4cccc(CN5CCOCC5)c4)ccc3n2)cc1

EC50 ([1]; read-out: EC50): > 3000 nM
SMILES: CN(C)Cc1cccc(-c2ccc3nc(-c4ccc(Cl)cc4)cn3c2)c1

Drug metabolism [2]: Metabolite_Detected
SMILES: O=C(O)c1cccc(-c2ccc3nc(-c4ccc(Cl)cc4)cn3c2)c1

EC50 ([1]; read-out: EC50): > 3000 nM
SMILES: COCc1cccc(-c2ccc3nc(-c4ccc(Cl)cc4)cn3c2)c1

EC50 ([1]; read-out: EC50): > 1000 nM
SMILES: OCc1cc(-c2ccc3nc(-c4ccc(Cl)cc4)cn3c2)ccc1F

EC50 ([1]; read-out: EC50): 99 nM
SMILES: CC(O)c1cccc(-c2ccc3nc(-c4ccc(Cl)cc4)cn3c2)c1 (racemic)

CLH [9]: 0.1368 mL/h
EC50 ([1]; read-out: EC50): 38 nM
SMILES: OCc1c(F)ccc(-c2ccc3nc(-c4ccc(Cl)cc4)cn3c2)c1F
inhibition at 10 µM (hERG): 24%
